{"source": "patent US8138356B2", "about": "“Chemical inhibitors of inhibitors of differentiation” (Angiogeney, Inc., priority 2008, dated 2012)", "key": {"Id1-E47 interaction": {"biological_target": "T1, Id1-E47 interaction (Homo sapiens, UniProt P41134)", "T1 sequence (P41134 1-155)": "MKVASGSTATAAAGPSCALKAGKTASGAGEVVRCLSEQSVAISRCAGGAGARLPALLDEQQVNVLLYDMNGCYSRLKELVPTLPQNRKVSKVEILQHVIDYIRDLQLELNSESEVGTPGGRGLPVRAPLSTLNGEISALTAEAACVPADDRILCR", "assay": "Gel shift assay: E47 binding to MCK E-box oligonucleotide in the presence of Id1", "assay_type": "biochemical", "procedure": "Gel shift assays were performed using the 376 small molecules identified in the in silico drug screen and peptide synthesis. The identified compounds were then dissolved in 5% DMSO to a concentration of 100 μm and reacted in binding mixtures that contained E47, Id1 and Mck. As controls, recombinant human E47 was used in a standard binding reaction that contained ^32P labeled MCK double stranded oligonucleotides containing consensus E-Box response element (MCK-5′ TTGATCCCCCCAACACCTGCTGCCTGAAGCT (SEQ ID NO. 1)) and 100 ng of Id1 was added to a standard binding reaction using E47 and p32 labeled MCK. After 30 minutes of incubation, the reaction mixtures were resolved on a 5% non-denaturing polyacrylamide gel and autoradiographed."}, "DU145 cells": {"system": "DU145 cells", "assay": "Cell survival/morphology by microscopy, DU145 prostate cancer cells", "assay_type": "cell-based, human", "conditions": "concentration of 1 um (FIG. 6)", "procedure": "Prostate cancer cell lines DU145 and PC3 (in 10% BCS) were obtained from American Type Culture Collection (Rockville, Md.). The cells were cultured in Ham's F12 (Gibco, Carlsbad, Calif.) medium containing 10% BCS (Hyclone, Logan, Utah) and appropriate antibiotics (pen/strep, fungizaone, and gentamycin (Invitrogen Inc., Carlsbad, Calif.). All cells were cultured at 37° C. in a fully humidified atmosphere containing 5% CO2.\nAt 50% confluence, the cells were treated with either 100 μM DMSO, 1000 mOsmol of urea+NaCL, 1 μM N-[3-(1,3-benzodioxol-5-yl)-3-(2-methoxyphenyl)propyl]-N-benzylpropanamide, 10 μM N-[3-(1,3-benzodioxol-5-yl)-3-(2-methoxyphenyl)propyl]-N-benzylpropanamide, and 100 μM N-[3-(1,3-benzodioxol-5-yl)-3-(2-methoxyphenyl)propyl]-N-benzylpropanamide, 1 μM N′-(4-isopropylphenyl)-1-benzothiophene-2-carbohydrazide, 10 μM N′-(4-isopropylphenyl)-1-benzothiophene-2-carbohydrazide, or 100 μM N′-(4-isopropylphenyl)-1-benzothiophene-2-carbohydrazide. The cell morphology and growth was monitored daily for 1 week by microscopy for changes in morphology or cell death. Apoptosis was determined by measuring caspase 3 and caspase 7 activities using the Caspase-Glo 3/7 Assay system from Promega (Madison, Wis.)."}}, "data": [{"smiles": "CC(C)c1ccc(NNC(=O)c2cc3ccccc3s2)cc1", "note": "[N′-(4-isopropylphenyl)-1-benzothiophene-2-carbohydrazide]", "values": [{"measurement": "dose dependence of effect in the gel shift assay", "setting": "Id1-E47 interaction", "value": "dose-proportionality"}, {"measurement": "anti-Id activity in the gel shift assay (shifted band of bound E47-MCK in the presence of Id1)", "setting": "Id1-E47 interaction; compound 100 μm in 5% DMSO, E47, Id1 and MCK, 30 minutes", "value": "restore the binding between E47-MCK in the presence of Id1"}, {"measurement": "survival of DU145 cells", "setting": "DU145 cells", "value": "able to induce cell death"}]}]}
